Assay results published in patent publication US20070259837A1, “Use of Non-Glucocorticoid Steroids for the Treatment of Muscular Dystrophy” (SANTHERA PHARMACEUTICALS (SCHWEIZ) AG, priority 2004, published 2007).
Where two headings read alike, the source gives them in different places.

Test system: utrophin protein in human muscle cells derived from DMD patients
Experiment: Cell-based ELISA for normalized utrophin protein level in primary human myotube cultures
Details: for % UTR vs. PDN (normalized utrophin protein as % of PDN-treated sister cultures): same experiment; for activity at 0.5 µM: Myotube, read-out: % UTR vs. DMSO (normalized utrophin protein over DMSO-solvent treated control)
Method: The method used to detect and determine utrophin-inducing activity of non-glucocorticoid steroids has been described previously (Courdier-Fruh, I., Barman, L., Briguet, A. & Meier, T.; 2002, Neuromuscul. Disord.; 12 Suppl:S95). Briefly, primary human muscle cell cultures were prepared according to standard protocols (Askanas V, Kwan H, Alvarez R B, Engel W K, Kobayashi T, Martinuzzi A, Hawkins E F., 1987, J Neurocytol., 16:523-537). Test compounds and the glucocorticoid 6α-methylprednisolone-21 sodium succinate (Pharmacia & Upjohn; Solu-Medrol®, PDN) as reference compound were applied at 500 nM final concentration as soon as myoblasts started to differentiate into myotubes. Incubation with the test compound was ended as soon as well differentiated myotubes have formed, typically resulting in an incubation time with a test compound for 3-7 days.
Normalized concentrations of utrophin protein in human muscle cells cultured in microtiter plates were determined by a cell-based enzyme-linked immunosorbent assay (ELISA) procedure that allows a successive readout for the cell density and utrophin protein level. For calibration, the cell density and differentiation was determined by absorbance measurements of the total dehydrogenase enzyme activity in each well using the colorimetric CellTiter 96®AQ One Solution Reagent Proliferation Assay (Promega) according to the manufacturer's recommendation. Subsequently, cells were fixed, washed, permeabilized with 0.5% (v/v) Triton X-100 and unspecific antibody binding-sites were blocked by standard procedures. Utrophin protein levels were determined immunologically with utrophin-specific primary antibodies (mouse monoclonal antibody to the amino terminal portion of utrophin, NCL-DRP2, Novocastra Laboratories) and with appropriate peroxidase-coupled secondary antibodies using QuantaBlu™ Fluorogenic Peroxidase Substrate Kit (Pierce) for detection. Fluorescence measurements were carried out with a multilabel counter (Wallac) at λex=325 nm and at λem=420 nm. The primary readout of this signal is presented in arbitrary units. For calibration, the arbitrary units representing the relative utrophin protein content of each well were divided by the corresponding cell-titer absorbance value to correct for cell density. For comparison between experiments, the cell-titer corrected readout for utrophin protein content in each well was expressed in percent of solvent treated control cultures (set to 100%). PDN was included in all experiments as reference glucocorticoid, N=3-5 for each compound tested.
Non-glucocorticoid test compounds, applied in a concentration of 500 nM, were regarded as “positive” in case the increase in the level of utrophin protein was at least 20% (mean value) over control cultures treated with the appropriate dilution of DMSO solvent as control and containing no test compound.
A range of different pharmaceutical compounds were tested for their ability to increase levels of utrophin protein in primary human myotube cultures. The cell-based ELISA protocol used to detect the level of utrophin protein is provided above and described in Courdier-Fruh, I., Barman, L., Briguet, A. & Meier, T, 2002, Neuromuscul. Disord.: 12, Suppl:S95. Briefly, fixed and permeabilized human muscle cells derived from DMD patients and cultured in 96-well cell culture plates were incubated with antibodies specific for utrophin at a dilution of 1:1'000 in blocking solution (phosphate buffered saline (PBS) supplemented with 2% fetal calf serum and 1% bovine serum albumin) for 10-15 hours at 4° C. Following several washing steps with 0.1% Triton X-100 in PBS, peroxidase-coupled secondary antibodies diluted 1:3'000 in blocking solution were applied in each well for 1-2 hours at room temperature. Signal detection, data acquisition and normalization was performed as described above and in Courdier-Fruh, I., Barman, L., Briguet, A. & Meier, T, 2002, Neuromuscul. Disord.: 12, Suppl:S95. […]

[1] = 500 nM compound, human muscle cultures, mean value, N=3-6

Compound	% UTR vs. PDN (normalized utrophin protein as % of PDN-treated sister cultures) [1] [%]	activity at 0.5 µM (Homo sapiens) [%]	activity at 0.5 µM [1] [%]
CC(C)CCCC(C)[C@H]1CCC2C3C[C@@H](O)[C@@]4(O)C[C@@H](O)CC[C@]4(C)C3CC[C@@]21C (stereo partly drawn) [Example 35]	94	122	–
CC(C)C/C=C\C(C)[C@H]1CC[C@@]2(C)C3=CC=C4C(C)(C)[C@@H](O)CC[C@]4(C)C3CC[C@]12C (stereo partly drawn) [Example 36]	96	122	–
CC(C)=CCCC(C)[C@H]1CC[C@@]2(C)C3=C(CC[C@]12C)[C@@]1(C)CC[C@H](O)C(C)(C)C1CC3 (stereo partly drawn) [Example 37, Lanosterol]	102	123	–
C[C@]12CCC3C(CC[C@H]4C[C@@H](OC(=O)c5ccccc5)CC[C@]34C)C1CC[C@@H]2OC(=O)c1ccccc1 (stereo partly drawn) [Example 38]	108	126	–
C[C@]12CC[C@H](OC(=O)c3ccccc3)CC1=CCC1C2CC[C@@]2(C)C1CC[C@@H]2NC(=O)c1ccccc1 (stereo partly drawn) [Example 39]	106	121	–
C#C[C@]1(O)CCC2C3CCC4=CC(=O)CC[C@@H]4C3CC[C@@]21CC (stereo partly drawn) [Example 41, Norgestrel]	103	–	130
C#C[C@]1(OC(C)=O)CC[C@H]2[C@@H]3CCC4=CC(=O)CC[C@@H]4[C@H]3CC[C@@]21C [Example 42, Norethisterone acetate]	101	–	128
CCC(=O)O[C@H]1CC[C@]2(C)C3CC[C@]4(C)C(=O)CCC4C3CC[C@H]2C1 (stereo partly drawn) [Example 43]	99	128	–
CC(=O)OC1CCC2C3CC[C@H]4C[C@H](O)CC[C@]4(C)C3CC[C@]12C (stereo partly drawn) [Example 44]	99	129	–
C#C[C@]1(OC(C)=O)CCC2C3CCC4=C[C@@H](OC(C)=O)CC[C@@H]4C3CC[C@@]21C (stereo partly drawn) [Example 45]	99	–	130
C[C@]12CCC3C(CC[C@H]4C[C@@H](OC(=O)c5ccccc5)CC[C@]34C)C1CC(=O)C2 (stereo partly drawn) [Example 46]	112	131	–
C[C@@]12C=CCC1C1CC[C@H]3C[C@H](O)CC[C@]3(C)C1CC2 (stereo partly drawn) [Example 47]	98	127	–
CCC(=O)O[C@H]1CCC2C3CCC4=CC(=O)CC[C@]4(C)C3CC[C@@]21C (stereo partly drawn) [Example 48, Testosterone propionate]	98	122	–
C[C@]12CC(=O)C3C(CC[C@H]4C[C@@H](O)CC[C@]34C)C1CCC2=O (stereo partly drawn) [Example 49]	97	127	–
C[C@]12CC[C@H](Cl)CC1=CCC1C2CC[C@]2(C)C(=O)CCC12 (stereo partly drawn) [Example 50]	98	123	–
C[C@]12C=CC(=O)C=C1CCC1C2=CC[C@]2(C)C(C(=O)CN3CCN(c4cc(N5CCCC5)nc(N5CCCC5)n4)CC3)CCC12.O=C(O)/C=C\C(=O)O (stereo partly drawn) [Example 51]	113	143	–
CC(=O)OCC(=O)[C@H]1CCC2C3CC[C@@H]4C[C@H](OC(C)=O)CC[C@]4(C)C3[C@@H](O)C[C@@]21C (stereo partly drawn) [Example 52]	112	145	–
C[C@]12CCC(=O)C=C1CC[C@@H]1[C@@H]2CC[C@@]2(C)[C@H]1CC[C@]2(O)C(=O)CO [Example 53, Cortexolone]	111	–	146

Compound	% UTR vs. PDN (normalized utrophin protein as % of PDN-treated sister cultures) [1] [%]	activity at 0.5 µM (Homo sapiens) [%]	activity at 0.5 µM [1] [%]
CC(=O)O[C@@]1(C(C)=O)CCC2C3C[C@H](C)C4=CC(=O)CC[C@]4(C)C3CC[C@@]21C (stereo partly drawn) [Example 54]	106	–	135
CC(=O)O[C@H]1CC[C@]2(C)C3=CC[C@]4(C)C(C(C)=O)=CCC4C3CC[C@H]2C1 (stereo partly drawn) [Example 55]	107	125	–
CC(=O)[C@@]12O[C@@H]1CC1C3CC=C4C[C@@H](O)CC[C@]4(C)C3CC[C@@]12C (stereo partly drawn) [Example 56]	105	137	–
CC(=O)[C@H]1CCC2C3CCC4=CC(=O)CC[C@]4(C)C3[C@H](OC(=O)c3ccccc3)C[C@@]21C (stereo partly drawn) [Example 57]	104	120	–
CC(=O)[C@H]1CCC2C3CCC4=CC(=O)CC[C@]4(C)C3[C@H](O)C[C@@]21C (stereo partly drawn) [Example 58]	102	133	–
CC(=O)OCC(=O)C1=CCC2C3CC[C@H]4C[C@@H](OC(C)=O)CC[C@]4(C)C3CC[C@]12C (stereo partly drawn) [Example 59]	102	121	–
CC(=O)O[C@H]1CC[C@]2(C)C3CC[C@]4(C)C(C(C)=O)=CCC4C3CC[C@H]2C1 (stereo partly drawn) [Example 60]	101	127	–
CC(=O)[C@@]12O[C@@H]1CC1C3CC(C)=C4C[C@@H](O)CC[C@]4(C)C3CC[C@@]12C (stereo partly drawn) [Example 61]	100	130	–
CC(=O)C1CCC2C3CC[C@H]4C[C@@H](O)CC[C@]4(C)C3CC[C@]12C (stereo partly drawn) [Example 62]	99	129	–
CC(=O)OCC(=O)[C@@]1(O)CCC2C3CCC4=CC(=O)CC[C@]4(C)C3CC[C@@]21C (stereo partly drawn) [Example 63, Cortexolone 21-acetate]	99	129	–
CC(=O)C1CCC2C3C[C@@H]4O[C@@]45C[C@@H](O)CC[C@]5(C)C3CC[C@]12C (stereo partly drawn) [Example 64]	97	127	–
CC(=O)C1CCC2C3CC[C@H]4C[C@H](O)CC[C@]4(C)C3C[C@H](O)[C@]12C (stereo partly drawn) [Example 65]	97	121	–
CC(=O)[C@@]1(O)CCC2C3CCC4=CC(=O)CC[C@]4(C)C3CC[C@@]21C (stereo partly drawn) [Example 66]	97	–	127
CC(=O)OCC(=O)[C@H]1CCC2C3CCC4=CC(=O)CC[C@]4(C)C3CC[C@@]21C (stereo partly drawn) [Example 67]	96	–	120
CC(=O)OCC(=O)[C@@]12O[C@@H]1CC1C3CC[C@@H]4C[C@H](O)CC[C@]4(C)C3CC[C@@]12C (stereo partly drawn) [Example 68]	95	125	–
C[C@]12C[C@H](O)C3C(CC[C@@H]4C[C@H](O)CC[C@]34C)C1CCC2C(=O)CO (stereo partly drawn) [Example 69]	95	123	–
C[C@]12CC(=O)C3C(CC[C@@H]4C[C@H](O)CC[C@]34C)C1CC[C@]2(O)C1(CO)OCCO1 (stereo partly drawn) [Example 70]	94	122	–
C[C@]12CCC3c4ccc(O)cc4CCC3C1CC[C@@H]2O (stereo partly drawn) [Example 71, Estradiol]	105	–	136
